Experiments:
[1] = system: SEC components AFF1 and AFF4; assay: Western blotting of SEC and P-TEFb component protein levels in treated cells; type: cell-based, human; conditions: HEK293T and HCT-116 cells, 20 μM, 6 hr
Source text: FIG. 1. Peptidomimetic identification of disruptors of the AFF4-CCNT1 interaction within the Super Elongation Complex. (A) Schematic for the identification of small molecule inhibitors of the AFF4-CCNT1 interaction using in silico high-throughput screening. Compounds from the ZINC database were docked with the AFF4-CCNT1 structure (4IMY) using a three-tier glide-docking algorithm, which led to 40 candidates. Residues forming the deep binding pocket of CCNT1 are labeled orange and residues of the AFF4 peptide are labeled red. (B) Validation screening identified KL-1 as a potential SEC disruptor using AlphaLISA screening. […] The Ki constants of both compounds were measured with the AlphaLISA assays. […] 5 μl, 10 and 20 μl cell lysates were loaded and the protein levels of AFF1, AFF4, CCNT1, CDK9 and Tubulin (load control) were determined by western blotting.
FIG. 8, related to FIG. 1. […] 293T cells were treated with 20 μM of KL-1 or KL-2 for 6 hr, and the protein levels of BRD2, BRD4, Pol II (RPB1), SPT5, MED26, MYC, HSP90 (load control) and Tubulin (load control) were measured by western blotting. […] HCT-116 cells were treated with 20 μM of KL-1 or KL-2 for 6 hr, and the protein levels of AFF1, AFF4, CCNT1, CDK9 and Tubulin (load control) were determined by western blotting. […] The log2CPM (counts per million) of the SEC subunits were calculated with HTseq. […]

[2] = system: Tat-induced HIV genome activation in J-Lat 6.3 cells; assay: Tat-induced HIV genome activation in J-Lat 6.3 cells (GFP, FACS); type: cell-based, human; conditions: 20 μM, 10 nM PMA, 17 hr
Procedure: FIG. 12, related to FIG. 5. SEC inhibitors block transcription elongation in SEC-dependent rapid response models. […] (B) Gene Ontology analysis of the 136 identified heat shock-induced genes in HCT-116 cells. (C) Workflow of Tat-induced HIV genome activation in J-Lat 6.3 cells. J-Lat 6.3 cells contain an integrated copy of the HIV genome that has GFP replacing HIV nef and could be activated by Phorbol-12-Myristate-13-Acetate (PMA). J-Lat 6.3 cells were treated with vehicle or 20 μM SEC inhibitor along with PMA to activate the HIV genome transcription, which could be monitored by flow cytometry analysis. (D-E) SEC inhibitors block Tat-induced HIV genome activation in J-Lat 6.3 cells. (D) FACS analysis of J-Lat 6.3 cells treated with 10 nM PMA and SEC inhibitors for 17 hr. […] Unpaired two-way ANOVA was used to compare the groups between DMSO and SEC inhibitors. ***, p<0.001. Data are represented as Mean+/−SD. […]
Induction of J-Lat 6.3 Cells. […] Cells were washed in PBS and GFP fluorescence was measured with a FACSVantage instrument (Becton Dickinson, San Jose, Calif.). […] A two-parameter analysis to distinguish GFP-derived fluorescence from background fluorescence was used: GFP was measured in FL1 and cellular autofluorescence was monitored in FL2. The percentage of GFP-positive cells was calculated based on live cells (Jordan et al., 2003).

`COc1cccc(C(=O)CC(=O)C(=O)Nc2cc(Cl)ccc2C)c1` [KL-1, N-(5-chloro-2-methylphenyl)-4-oxo-4-(3-methoxyphenyl)-2-oxobutanamide] was tested, and the “protein levels of CCNT1, CDK9, Pol II, BRD2 and BRD4” value [1] was “no major effect”, the “protein levels of SEC components AFF1 and AFF4” value [1] was “led to depletion of SEC components AFF1 and AFF4” and the “GFP expression after PMA induction” value [2] was “strong inhibition of GFP expression”.

Source: patent US11453640B2, “Small molecules for disrupting the super elongation complex and inhibiting transcription elongation for cancer therapy” (NORTHWESTERN UNIVERSITY, priority 2018, dated 2022)
